Measurements reported in ChEMBL document CHEMBL3272010, “Antimycotic imidazoles. 3. Synthesis and antimycotic properties of 1-[2-(aryloxyalkyl)-2-phenylethyl]-1H-imidazoles” (1977).
Active and inactive are the calls of the source. The calls are words filed in the database; no cut-off is given here.

How the values were obtained:
Candida tropicalis = assay: Antifungal activity against Candida tropicalis assessed as lowest dose required to total inhibition of fungal growth; type: functional
Streptococcus pyogenes = assay: Antibaterial activity against Streptococcus pyogenes assessed as lowest dose required to total inhibition of bacterial growth; type: functional
[1] = tested on: Erysipelothrix rhusiopathiae; assay: Antibaterial activity against Erysipelothrix insidiosa assessed as lowest dose required to total inhibition of bacterial growth; type: functional
Candida albicans [2] = assay: Antifungal activity against Candida albicans infected in guinea pig at 10 mg/kg, po qd; type: functional, organism-based; parameters: dose 10 mg/kg
Candida albicans [3] = assay: Antifungal activity against Candida albicans assessed as lowest dose required to total inhibition of fungal growth; type: functional
Aspergillus fumigatus = assay: Antifungal activity against Aspergillus fumigatus assessed as lowest dose required to total inhibition of fungal growth; type: functional
Phialophora verrucosa = assay: Antifungal activity against Phialophora verrucosa assessed as lowest dose required to total inhibition of fungal growth; type: functional
Cryptococcus neoformans = assay: Antifungal activity against Cryptococcus neoformans assessed as lowest dose required to total inhibition of fungal growth; type: functional
Mucor = assay: Antifungal activity against Mucor species assessed as lowest dose required to total inhibition of fungal growth; type: functional
Saprolegnia = assay: Antifungal activity against Saprolegnia species assessed as lowest dose required to total inhibition of fungal growth; type: functional
[4] = tested on: Staphylococcus haemolyticus; assay: Antibaterial activity against Staphylococcus haemolyticus assessed as lowest dose required to total inhibition of bacterial growth; type: functional
Sporothrix schenckii = assay: Antifungal activity against Sporothrix schenckii assessed as lowest dose required to total inhibition of fungal growth; type: functional
Trichophyton rubrum = assay: Antifungal activity against Trichophyton rubrum assessed as lowest dose required to total inhibition of fungal growth; type: functional
[5] = tested on: Trichophyton mentagrophytes; assay: Antifungal activity against Trichophyton mentagrophytes assessed as lowest dose required to total inhibition of fungal growth; type: functional
Microsporum canis = assay: Antifungal activity against Microsporum canis assessed as lowest dose required to total inhibition of fungal growth; type: functional

`Clc1ccc(OCCC(Cn2ccnc2)c2ccc(Cl)cc2Cl)c(Cl)c1.O=C(O)C(=O)O` (stereo not given) gave a GI (Candida tropicalis) of over 100 µg/mL, a GI (Streptococcus pyogenes) of under 1 µg/mL and a GI [1] of under 1 µg/mL. The Activity (Candida albicans [2]) was “Active”, the GI (Candida albicans [3]) was 100 µg/mL and the GI (Aspergillus fumigatus) was 100 µg/mL. It also gave a GI (Phialophora verrucosa) of 100 µg/mL, a GI (Cryptococcus neoformans) of under 1 µg/mL and a GI (Mucor) of 100 µg/mL. For the same compound, the GI (Saprolegnia) was 100 µg/mL, the GI [4] was 1 µg/mL and the GI (Sporothrix schenckii) was 100 µg/mL. The GI (Trichophyton rubrum) was under 1 µg/mL, the GI [5] was under 1 µg/mL and the GI (Microsporum canis) was 10 µg/mL.
`Clc1ccc(C(CCCOc2ccc(Br)cc2)Cn2ccnc2)c(Cl)c1.O=C(O)C(=O)O` (stereo not given) showed a GI (Candida tropicalis) of over 100 µg/mL, a GI (Streptococcus pyogenes) of under 1 µg/mL and a GI [1] of under 1 µg/mL. For the same compound, the Activity (Candida albicans [2]) was “inactive”, the GI (Candida albicans [3]) was over 100 µg/mL and the GI (Aspergillus fumigatus) was over 100 µg/mL. For the same compound, the GI (Phialophora verrucosa) was 100 µg/mL, the GI (Cryptococcus neoformans) was 10 µg/mL and the GI (Mucor) was over 100 µg/mL. For the same compound, the GI (Saprolegnia) was 100 µg/mL, the GI [4] was 10 µg/mL and the GI (Sporothrix schenckii) was 100 µg/mL. For the same compound, the GI (Trichophyton rubrum) was 10 µg/mL, the GI [5] was under 1 µg/mL and the GI (Microsporum canis) was 100 µg/mL.
For `Clc1ccc(C(CCOc2ccccc2)Cn2ccnc2)c(Cl)c1.O=C(O)C(=O)O` (stereo not given), the GI (Candida tropicalis) was 100 µg/mL, the GI (Streptococcus pyogenes) was 1 µg/mL and the GI [1] was 1 µg/mL. For the same compound, the Activity (Candida albicans [2]) was “inactive”, the GI (Candida albicans [3]) was 10 µg/mL and the GI (Aspergillus fumigatus) was 100 µg/mL. For the same compound, the GI (Phialophora verrucosa) was 100 µg/mL, the GI (Cryptococcus neoformans) was under 1 µg/mL and the GI (Mucor) was 100 µg/mL. It also gave a GI (Saprolegnia) of 100 µg/mL, a GI [4] of 10 µg/mL and a GI (Sporothrix schenckii) of 10 µg/mL. It also gave a GI (Trichophyton rubrum) of under 1 µg/mL, a GI [5] of under 1 µg/mL and a GI (Microsporum canis) of 10 µg/mL.
`Clc1ccc(C(CCOc2ccccc2Cl)Cn2ccnc2)c(Cl)c1.O=C(O)C(=O)O` (stereo not given) gave a GI (Candida tropicalis) of over 100 µg/mL, a GI (Streptococcus pyogenes) of under 1 µg/mL and a GI [1] of under 1 µg/mL. For the same compound, the Activity (Candida albicans [2]) was “inactive”, the GI (Candida albicans [3]) was over 100 µg/mL and the GI (Aspergillus fumigatus) was over 100 µg/mL. For the same compound, the GI (Phialophora verrucosa) was 100 µg/mL, the GI (Cryptococcus neoformans) was under 1 µg/mL and the GI (Mucor) was over 100 µg/mL. For the same compound, the GI (Saprolegnia) was 100 µg/mL, the GI [4] was 1 µg/mL and the GI (Sporothrix schenckii) was 10 µg/mL. For the same compound, the GI (Trichophyton rubrum) was under 1 µg/mL, the GI [5] was under 1 µg/mL and the GI (Microsporum canis) was 10 µg/mL.
`Fc1ccc(OCCC(Cn2ccnc2)c2ccc(Cl)cc2Cl)cc1.O=C(O)C(=O)O` (stereo not given) gave a GI (Candida tropicalis) of over 100 µg/mL, a GI (Streptococcus pyogenes) of 1 µg/mL and a GI [1] of under 1 µg/mL. For the same compound, the Activity (Candida albicans [2]) was “Active”, the GI (Candida albicans [3]) was 10 µg/mL and the GI (Aspergillus fumigatus) was 100 µg/mL. The GI (Phialophora verrucosa) was 100 µg/mL, the GI (Cryptococcus neoformans) was under 1 µg/mL and the GI (Mucor) was 100 µg/mL. The GI (Saprolegnia) was 10 µg/mL, the GI [4] was 10 µg/mL and the GI (Sporothrix schenckii) was 10 µg/mL. For the same compound, the GI (Trichophyton rubrum) was under 1 µg/mL, the GI [5] was under 1 µg/mL and the GI (Microsporum canis) was 10 µg/mL.
`Clc1ccc(OCCCC(Cn2ccnc2)c2ccc(Cl)cc2Cl)cc1.O=C(O)C(=O)O` (stereo not given) showed a GI (Candida tropicalis) of over 100 µg/mL, a GI (Streptococcus pyogenes) of under 1 µg/mL and a GI [1] of under 1 µg/mL. For the same compound, the Activity (Candida albicans [2]) was “inactive”, the GI (Candida albicans [3]) was over 100 µg/mL and the GI (Aspergillus fumigatus) was 100 µg/mL. It also gave a GI (Phialophora verrucosa) of 100 µg/mL, a GI (Cryptococcus neoformans) of 10 µg/mL and a GI (Mucor) of over 100 µg/mL. It also gave a GI (Saprolegnia) of 10 µg/mL, a GI [4] of 1 µg/mL and a GI (Sporothrix schenckii) of under 1 µg/mL. For the same compound, the GI (Trichophyton rubrum) was under 1 µg/mL, the GI [5] was under 1 µg/mL and the GI (Microsporum canis) was 10 µg/mL.
